Source: patent publication US20250059198A1, “BRM DEGRADING COMPOUNDS AND ASSOCIATED METHODS OF USE” (Arvinas Operations, Inc., priority 2021, published 2025)

Target: T1, BRM (Homo sapiens, UniProt P51531)
T1 construct: Western Blot Screen of BRM Degradation in SW1573 Cells; endogenous in cells; host or cells: SW1573 cells
Assay: BRM degradation (Dmax and DC50) in SW1573 cells, Western blot screen / In-Cell Western screen
Assay type: cell-based
Conditions: overnight (18-20 hours) treatment; for Dmax: read-out: Dmax (%)** (% degraded)
Experimental: (§1) To assess BRM degradation (Dmax and DC50) cells were seeded at 8000/well in 96-well black/clear-bottom plates in 180 μL DMEM growth media (containing 1% pen-strep, 1% HEPES and 10% FBS) per well. Plates were incubated overnight to allow adhesion. The next morning cells were treated by adding 20 μL of 10× target compound concentration (1% DMSO) to appropriate wells and returned to incubator for overnight (18-20 hours). The final DMSO concentration was 0.1%.
For lysing, adherent cells were washed once with 100 μL of DPBS. Cells were lysed in 40 μL of 1×RIPA+HALT protease inhibitor on ice for 10 minutes and frozen until use at −80° C. Thawed lysates were cleaned by filtration in 1.2 µm filter plates, or alternatively, were spun clean at 2300 g at 4° C. for 30 minutes.
For blotting, for each Western sample 30 μL of lysate was added to 10 μL of 4× LDS sample buffer, then denatured at 95° C. for 5 minutes in the thermal cycler and placed on ice. Samples were loaded on 4-15% Tris/Glycine gels and run for 25 minutes at 250 constant volts in 1× Tris/Glycine buffer with 4 μL of ladder and 12 μL of each sample loaded for each blot. Protein was transferred from gels to NC with BioRad Turbo dry-transfer unit with the Turbo/midi default program. All blots were rinsed with ddH2O and blocked for 1 hour at room temperature in 5% BSA in TBST (0.1%) on rocker. Blots were exposed to primary antibody in 5% BSA in TBST (0.1%) overnight at 4° C. on rocker (1:1000 for BRM (Cell Signaling Tech. cat #11966) and 1:2000 for alpha-tubulin (Cell Signaling Tech. cat #3873), a control protein. Blot was washed with TBST (0.1%) three times for 5 minutes on rocker at room temperature. Secondary antibody was added, and blots were incubated on a room temperature rocker for 1 hour with 1:18,000 anti-rabbit-HRP and/or anti-mouse-HRP in 5% BSA in TBST (0.1%). Blots were washed three times in TBST (0.1%) for 5 minutes at room temperature on the rocker. Signal was developed with Femto Maximum Sensitivity substrate for 4 minutes and blots read on ChemiDoc™.
as §1, with “DC50),” for “DC50)”, “10×” for “10× target”, “compound” for “compound concentration”
For processing, the plates were removed from incubator, the media was removed, and immediately 200 μL of cold (4° C.) DPBS was added to all wells. DPBS was then removed, and 50 μL of 4% paraformaldehyde (PFA) in DPBS (4° C.) was added to all wells, and the plates were incubated at room temperature for 20 minutes. PFA was then removed, and 200 μL of TBS-T containing 0.5% Triton X-100 was added to all wells, and the plates were incubated at room temperature for 30 minutes. TBS-T containing 0.5% Triton X-100 was then removed, and 50 μL of Li-Cor blocking solution was added, and the plates were incubated at room temperature for a minimum of one hour. The blocking solution was removed, and 50 μL of Li-Cor blocking solution containing primary antibody cocktail was added (1:1000 for BRM (Cell Signaling Tech. cat #11966) and 1:2000 for alpha-tubulin (Sigma cat #T6074), a control protein. Plates were then placed in cold room until the next day.
The next day plates were washed three times with TBS-T, 200 μL per well. Fifty […] of secondary antibody cocktail in LI-COR blocking solution (anti-rabbit_800 nm and anti-mouse_680 nm) was added to all wells (diluted 1:5000). The plates were incubated at room temperature for at least one hour while protected from light. The plates were washed twice with TBS-T, 200 μL per well.
To read each plate TBS-T was removed, and each plate was inverted tapped on a paper towel. […]

T1 sequence (P51531 whole entry): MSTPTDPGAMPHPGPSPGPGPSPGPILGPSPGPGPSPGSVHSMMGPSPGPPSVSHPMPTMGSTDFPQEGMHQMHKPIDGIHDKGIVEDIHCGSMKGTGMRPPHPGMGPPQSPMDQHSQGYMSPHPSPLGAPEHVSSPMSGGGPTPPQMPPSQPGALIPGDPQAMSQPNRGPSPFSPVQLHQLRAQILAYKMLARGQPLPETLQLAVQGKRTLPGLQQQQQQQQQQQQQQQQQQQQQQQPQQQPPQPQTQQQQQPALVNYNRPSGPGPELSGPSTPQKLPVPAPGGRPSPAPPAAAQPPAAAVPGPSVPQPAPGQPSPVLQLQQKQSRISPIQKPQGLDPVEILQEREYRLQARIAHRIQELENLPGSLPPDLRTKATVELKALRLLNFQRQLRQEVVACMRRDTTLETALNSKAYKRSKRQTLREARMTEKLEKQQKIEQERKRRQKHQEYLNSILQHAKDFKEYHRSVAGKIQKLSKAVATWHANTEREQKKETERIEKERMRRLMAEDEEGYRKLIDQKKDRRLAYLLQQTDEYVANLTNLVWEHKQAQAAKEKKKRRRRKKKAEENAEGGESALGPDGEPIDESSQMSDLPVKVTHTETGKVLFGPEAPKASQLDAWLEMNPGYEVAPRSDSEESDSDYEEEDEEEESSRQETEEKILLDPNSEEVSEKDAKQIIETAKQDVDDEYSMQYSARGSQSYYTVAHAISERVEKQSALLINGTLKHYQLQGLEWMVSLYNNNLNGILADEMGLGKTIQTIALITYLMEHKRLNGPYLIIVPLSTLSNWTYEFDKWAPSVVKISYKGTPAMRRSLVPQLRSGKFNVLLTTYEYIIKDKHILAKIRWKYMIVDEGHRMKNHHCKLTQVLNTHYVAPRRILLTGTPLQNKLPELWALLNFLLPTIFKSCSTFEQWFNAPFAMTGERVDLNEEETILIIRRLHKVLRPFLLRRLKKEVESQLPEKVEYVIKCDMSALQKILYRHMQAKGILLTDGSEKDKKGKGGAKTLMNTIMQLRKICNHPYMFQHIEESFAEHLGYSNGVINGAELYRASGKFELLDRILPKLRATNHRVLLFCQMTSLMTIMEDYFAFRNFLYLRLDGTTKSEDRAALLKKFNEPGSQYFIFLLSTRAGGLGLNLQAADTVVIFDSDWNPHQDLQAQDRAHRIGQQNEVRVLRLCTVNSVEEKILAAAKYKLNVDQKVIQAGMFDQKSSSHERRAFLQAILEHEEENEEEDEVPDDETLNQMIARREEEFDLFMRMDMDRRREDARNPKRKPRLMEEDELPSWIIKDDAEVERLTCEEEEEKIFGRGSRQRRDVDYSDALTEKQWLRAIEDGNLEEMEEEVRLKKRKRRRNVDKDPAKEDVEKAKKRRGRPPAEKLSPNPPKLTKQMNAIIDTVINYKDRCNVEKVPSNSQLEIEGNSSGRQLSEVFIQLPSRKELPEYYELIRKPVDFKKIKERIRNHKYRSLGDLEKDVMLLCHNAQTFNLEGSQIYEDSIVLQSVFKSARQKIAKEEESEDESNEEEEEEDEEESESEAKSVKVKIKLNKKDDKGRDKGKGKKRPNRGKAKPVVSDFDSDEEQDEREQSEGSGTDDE

SMILES | DC50 | Dmax
CC(C)[C@@H](C(=O)N1C[C@H](O)C[C@H]1C(=O)N[C@@H](C)c1ccc(Cl)cc1)c1cc(N2CCC(CN3CCC(O[C@H]4C[C@H](Oc5cc(N6C7CCC6CN(c6cc(-c8ccccc8O)nnc6N)C7)ccn5)C4)CC3)CC2)no1 (relative stereo) [Compound 48, (2S,4R)-N-[(1S)-1-(4-chlorophenyl)ethyl]-4-hydroxy-1-[(2R*)-3-methyl-2-{3-[4-({4-[(1rs,3rs)-3-[(4-{3-[3-amino-6-(2-hydroxyphenyl)pyridazin-4-yl]-3,8-diazabicyclo[3.2.1]octan-8-yl}pyridin-2-yl)oxy]cyclobutoxy]piperidin-1-yl}methyl)piperidin-1-yl]-1,2-oxazol-5-yl}butanoyl]pyrrolidine-2-carboxamide] | 10 to 30 nM | > 75%
Cc1ncsc1-c1ccc([C@H](C)NC(=O)[C@@H]2C[C@@H](O)CN2C(=O)[C@@H](c2cc(N3CCC(CN4CCC(O[C@H]5C[C@@H](N6CCC([C@@H](C)n7cc(-c8cc(-c9ccccc9O)nnc8N)cn7)CC6)C5)CC4)CC3)no2)C(C)C)cc1 (single isomer, unassigned) [Compound 6] | < 2.5 nM | > 75%
Cc1ncsc1-c1ccc([C@H](C)NC(=O)[C@@H]2C[C@@H](O)CN2C(=O)[C@@H](c2cc(N3CCC(CN4CCC(O[C@H]5C[C@H](N6CCC([C@@H](C)n7cc(-c8cc(-c9ccccc9O)nnc8N)cn7)CC6)C5)CC4)CC3)no2)C(C)C)cc1 (single isomer, unassigned) [Compound 7] | < 2.5 nM | > 75%
Cc1ncsc1-c1ccc([C@H](C)NC(=O)C2C[C@@H](O)CN2C(=O)[C@@H](c2cc(N3CCC(CN4CC[C@@H](Oc5cc(N6C7CCC6CN(c6cc(-c8ccccc8O)nnc6N)C7)ccn5)[C@@H](F)C4)CC3)no2)C(C)C)cc1 (stereo in doubt) [Compound 49, (2S,4R)-1-[(2R)-2-[3-(4-{[(3S,4R)-4-[(4-{3-[3-amino-6-(2-hydroxyphenyl)pyridazin-4-yl]-3,8-diazabicyclo[3.2.1]octan-8-yl}pyridin-2-yl)oxy]-3-fluoropiperidin-1-yl]methyl}piperidin-1-yl)-1,2-oxazol-5-yl]-3-methylbutanoyl]-4-hydroxy-N-[(1S)-1-[4-(4-methyl-1,3-thiazol-5-yl)phenyl]ethyl]pyrrolidine-2-carboxamide] | < 2.5 nM | > 75%
Cc1ncsc1-c1ccc([C@H](C)NC(=O)C2C[C@@H](O)CN2C(=O)[C@@H](c2cc(N3CCC(CN4CC[C@H](Oc5cc(N6C7CCC6CN(c6cc(-c8ccccc8O)nnc6N)C7)ccn5)[C@H](F)C4)CC3)no2)C(C)C)cc1 (stereo in doubt) [Compound 50, (2S,4R)-1-[(2R)-2-[3-(4-{[(3R,4S)-4-[(4-{3-[3-amino-6-(2-hydroxyphenyl)pyridazin-4-yl]-3,8-diazabicyclo[3.2.1]octan-8-yl}pyridin-2-yl)oxy]-3-fluoropiperidin-1-yl]methyl}piperidin-1-yl)-1,2-oxazol-5-yl]-3-methylbutanoyl]-4-hydroxy-N-[(1S)-1-[4-(4-methyl-1,3-thiazol-5-yl)phenyl]ethyl]pyrrolidine-2-carboxamide] | < 2.5 nM | > 75%
Cc1ncsc1-c1ccc([C@H](C)NC(=O)C2C[C@@H](O)CN2C(=O)[C@@H](c2cc(N3CCC(CN4CC[C@@H](Oc5cc(N6C7CCC6CN(c6cc(-c8ccccc8O)nnc6N)C7)ccn5)C(F)(F)C4)CC3)no2)C(C)C)cc1 (stereo in doubt) [Compound 53, (2S,4R)-1-[(2R)-2-[3-(4-{[(4R)-4-[(4-{3-[3-amino-6-(2-hydroxyphenyl)pyridazin-4-yl]-3,8-diazabicyclo[3.2.1]octan-8-yl}pyridin-2-yl)oxy]-3,3-difluoropiperidin-1-yl]methyl}piperidin-1-yl)-1,2-oxazol-5-yl]-3-methylbutanoyl]-4-hydroxy-N-[(1S)-1-[4-(4-methyl-1,3-thiazol-5-yl)phenyl]ethyl]pyrrolidine-2-carboxamide] | 2.5 to 10 nM | > 75%
Cc1ncsc1-c1ccc([C@H](C)NC(=O)C2C[C@@H](O)CN2C(=O)[C@@H](c2cc(N3CCC(CN4CC[C@H](Oc5cc(N6C7CCC6CN(c6cc(-c8ccccc8O)nnc6N)C7)ccn5)C(F)(F)C4)CC3)no2)C(C)C)cc1 (stereo in doubt) [Compound 54, (2S,4R)-1-[(2R)-2-[3-(4-{[(4S)-4-[(4-{3-[3-amino-6-(2-hydroxyphenyl)pyridazin-4-yl]-3,8-diazabicyclo[3.2.1]octan-8-yl}pyridin-2-yl)oxy]-3,3-difluoropiperidin-1-yl]methyl}piperidin-1-yl)-1,2-oxazol-5-yl]-3-methylbutanoyl]-4-hydroxy-N-[(1S)-1-[4-(4-methyl-1,3-thiazol-5-yl)phenyl]ethyl]pyrrolidine-2-carboxamide] | 2.5 to 10 nM | > 75%
CC(C)[C@H](C(=O)N1C[C@H](O)C[C@H]1C(=O)N[C@@H](C)c1ccc(C#N)cc1)c1cc(O[C@H]2C[C@H](CN3CCC(O[C@H]4C[C@H](Oc5cc(N6C7CCC6CN(c6cc(-c8ccccc8O)nnc6N)C7)ccn5)C4)CC3)C2)no1 [Compound 1, (2S,4R)-N-[(1S)-1-(4-cyanophenyl)ethyl]-4-hydroxy-1-[(2S)-3-methyl-2-{3-[(1r,3r)-3-({4-[(1r,3r)-3-[(4-{3-[3-amino-6-(2-hydroxyphenyl)pyridazin-4-yl]-3,8-diazabicyclo[3.2.1]octan-8-yl}pyridin-2-yl)oxy]cyclobutoxy]piperidin-1-yl}methyl)cyclobutoxy]-1,2-oxazol-5-yl}butanoyl]pyrrolidine-2-carboxamide] | ≥ 30 nM | –
CC(C)[C@H](C(=O)N1C[C@H](O)C[C@H]1C(=O)N[C@@H](C)c1ccc(-c2ccnn2C)cc1)c1cc(N2CCC(CN3CCC(O[C@H]4C[C@H](Oc5cc(N6CCN(c7cc(-c8ccccc8O)nnc7N)CC6)ccn5)C4)CC3)CC2)no1 [Compound 2, (2S,4R)-4-hydroxy-N-[(1S)-1-[4-(1-methyl-1H-pyrazol-5-yl)phenyl]ethyl]-1-[(2S)-3-methyl-2-{3-[4-({4-[(1r,3r)-3-[(4-{4-[3-amino-6-(2-hydroxyphenyl)pyridazin-4-yl]piperazin-1-yl}pyridin-2-yl)oxy]cyclobutoxy]piperidin-1-yl}methyl)piperidin-1-yl]-1,2-oxazol-5-yl}butanoyl]pyrrolidine-2-carboxamide] | ≥ 30 nM | –
CC(C)[C@@H](C(=O)N1C[C@H](O)C[C@H]1C(=O)N[C@H](C)c1cc(F)c(C#N)cc1F)c1cc(N2CCC(CN3CCC(O[C@H]4C[C@H](Oc5cc(N6C7CCC6CN(c6cc(-c8ccccc8O)nnc6N)C7)ccn5)C4)CC3)CC2)no1 [Compound 3, (2S,4R)-N-[(1R)-1-(4-cyano-2,5-difluorophenyl)ethyl]-4-hydroxy-1-[(2R)-3-methyl-2-{3-[4-({4-[(1r,3r)-3-[(4-{3-[3-amino-6-(2-hydroxyphenyl)pyridazin-4-yl]-3,8-diazabicyclo[3.2.1]octan-8-yl}pyridin-2-yl)oxy]cyclobutoxy]piperidin-1-yl}methyl)piperidin-1-yl]-1,2-oxazol-5-yl}butanoyl]pyrrolidine-2-carboxamide] | ≥ 30 nM | –
